Experimental data reported in patent US20170314056A1, “METHOD OF USING NEAR INFRARED FLUORESCENT DYES FOR IMAGING AND TARGETING CANCERS” (priority 2010, published 2017).
Entries after “also recorded” stand apart in the source; their conditions may differ. Read-outs that look alike come from different tables or passages of the source.

Legend:
[1] = system: ARCaPM orthotopic tumor metastases; experiment: Detection of metastases of orthotopic ARCaPM tumors in mice; format: in vivo, mouse; details: orthotopic ARCaPM (ARCaP) model; bone and soft tissue metastases
Protocol: The spontaneous metastasis of ARCaPM tumor cells stably transduced with an AsRed2 red fluorescence protein (RFP) (Clontech, Mountain View, Calif.) by injecting these cells orthotopically in mice was studied. ARCaPM-RFP metastasis was determined by the same procedures described above for capturing cyanine dye tumor imaging after IR-783 i.p. injection at a dose of 10 nmol/20 g. In addition, at the time of sacrifice both frozen and paraffin embedded tissue sections were obtained for RFP and confocal fluorescence imaging. Positive identification of ARCaPM-RFP cells was accomplished by fluorescence microscopy and validated by subculturing ARCaPM-RFP cells directly from bone metastasis tissue specimens.

[2] = for body weight: daily intraperitoneal injection, Balb/c mice
Protocol: In control mice, the same volume of PBS was injected. The body weight and lethality of these mice were closely followed for 28 days.

[3] = system: human renal tumor tissues; experiment: In vitro fluorescence imaging of freshly harvested human renal tumor tissues; format: cell-based; details: fresh nephrectomy specimens; 20 µM dye, 37° C., 30 minutes
Protocol: Kidney tumor tissue samples were collected from 5 patients immediately after tumor nephrectomy according to an Emory approved IRB protocol. All 5 patients had histologically confirmed renal cell carcinoma of the clear cell type. The tissues were excised from tumor area, normal area and the area of tumor and normal adjacent on the kidney removed. All above procedures were conducted on ice and the excised tissues were stored at 4° C. Each incised tissue was cut into three pieces and were incubated with 20 µM IR-783 dye, 20 µM IR-780 and PBS, respectively, at 37° C. for 30 minutes. The dye solutions were removed and the tissues were washed five times by PBS. Optical imaging was done using Kodak Imaging Station Imaging System (see above).
To determine dye uptake in tissues, tissues cut from incised kidney samples (described above) tumor were placed in OTC medium and frozen at −80° C. These frozen tissues were retrieved for histopathologic sections cut to 5 Lm thickness for pathologic observation under a confocal microscope as described above.

human cancer cells = experiment: Uptake of NIR dyes by cultured human cancer cell lines (confocal NIR imaging); format: cell-based; details: for uptake of dye by human cancer cell lines in culture: panel of prostate, breast, cervical, lung, liver, pancreatic, renal, bladder and leukemia lines, confocal microscope
Protocol: Cells (1×10^4/well) were seeded on vitronectin-coated four-well chamber slides (Nalgen Nunc, Naperville, Ill.) and incubated with T-medium containing 5% FBS for 24 h. After the cells had attached to the chamber slides, the cells were washed with PBS (Phosphate Buffered Saline) and exposed to the cyanine dye at a concentration of 20 μM in T-medium. The slides were incubated at 37° C. for 30 min, washed twice with PBS to remove excess dyes, and cells were fixed with 10% formaldehyde at 4° C. The slides were then washed twice with PBS and covered with glass coverslips with an aqueous mounting medium (Sigma-Aldrich, St. Louis, Mo.). Images were recorded by confocal laser microscopy (Zeiss LSM 510 META, Germany) using a 633 nm excitation laser and 670-810 nm long pass filter, or a fluorescence microscope (Olympus 1×71; Olympus, Melville, N.Y.) equipped with a 75 W Xenon lamp and an Indo-Cyanine Green filter cube (excitation 750-800 nm; emission 820-860 nm) (Chroma, Rockingham, Vt.).
Cells (1×10^4/well) were seeded on vitronectin-coated four-well chamber slides (Nalgen Nunc, Naperville, Ill.) and incubated with T-medium containing 5% FBS for 24 h. After the cells had attached to the chamber slides, the cells were washed with PBS (Phosphate Buffered Saline) and exposed to the cyanine dye at a concentration of 20 μM in medium. The slides were incubated at 37° C. for 30 min, washed twice with PBS to remove excess dyes, and fixed with 10% formaldehyde at 4° C. The slides were then washed twice with PBS and covered with glass coverslips with aqueous mounting medium (Sigma-Aldrich, St. Louis, Mo.). Images were recorded by confocal laser microscopy (Zeiss LSM 510 META, Germany) equipped with 633 nm excitation laser and 670-810 nm long pass filter.

human tumor xenografts = experiment: NIR imaging of human tumor xenografts in live mice; details: for tumor imaging of subcutaneous xenografts: Kodak multimodal-imaging system; for dye uptake and signal in human xenograft implants at various sites: subcutaneous, orthotopic or intraosseous tumors, i.p. or i.v. dye; for duration of dye uptake and retention in tumors after dye administration: tumors in live mice
From the text: […] After variable time of the dye injection, the mice were anesthetized and imaged by using the Kodak animal in vivo imaging system, which can obtain both the NIR signal and the X-ray picture and these images were merged. […] IR-783 uptake into metastatic human prostate tumors was studied in ARCaP model.
Uptake and accumulation of cyanine dyes in tumors in live mice Human cancer cells were implanted (1×10^6) either subcutaneously, orthotopically, or intraosseously into 4 to 6 week old athymic nude mice (National Cancer Institute, Frederick, Md.) according to our previously published procedures (26, 27). All animal studies were conducted under the Emory University Animal Care and Use Committee guidelines. […] Whole body optical imaging was taken at 24 h using a Kodak Imaging Station 4000 MM (New Haven, Conn.) equipped with fluorescent filter sets (excitation/emission, 800/850 nm). The field of view (FOV) was 120 mm in diameter. The frequency rate for NIR excitation light was 2 mW/cm^2. The camera settings included maximal gain, 2×2 binning, 1024×1024 pixel resolution, and an exposure time of 5 sec. In some instances, live mice were also imaged by an Olympus OV100 Whole Mouse Imaging System (excitation 762 nm; emission 800 nm) (Olympus Corp., Tokyo, Japan), containing a MT-20 light source (Olympus Biosystems, Planegg, Germany) and DP70 CCD camera (Olympus). Prior to imaging, mice were anesthetized with ketamine (75 mg/kg). During imaging, mice were maintained in an anesthetized state.
Human renal cancer cells (ACHN and SN12C) were implanted (1×10^6) subcutaneously and intraosseously into 4 to 6 week old athymic nude mice, respectively. And, we also implanted Caki-1 cells into the renal capsule of athymic nude mice to establish subrenal capsule xenografts of renal cancer as previously described.^70 When tumor sizes reached between 1-6 mm in diameter, as assessed by X-ray or by palpation, mice were […] Whole body optical imaging was taken at 24 h using a Kodak Imaging Station Imaging System 4000 MM (New Haven, Conn.) equipped with fluorescent filter sets (excitation/emission, 800/850 nm). The field of view (FOV) was 120 mm in diameter. The frequency rate for NIR excitation light was 2 mW/cm^2. The camera settings included maximal gain, 2×2 binning, 1024×1024 pixel resolution, and an exposure time of 5 sec. After whole body NIR imaging, the dissected organs and tumors were subjected to ex vivo imaging. Prior to imaging, mice were anesthetized with ketamine (75 mg/kg). During imaging, mice were maintained in an anesthetized state.

[4] = mice bearing subcutaneous ACHN tumors

With “2-[2-[2-Chloro-3-[2-[1,3-dihydro-3,3-dimethyl-1-(4-sulfobutyl)-2H-indol-2-ylidene]-ethylidene]-1-cyclohexen-1-yl]-ethenyl]-3,3-dimethyl-1-(4-sulfobutyl)-3H-indolium [IR-783]” the “detection of metastases by NIR imaging” value [1] was “highly effective in localizing tumors cells in soft tissues and in bone; also recorded: both the primary tumor and the metastases in mouse tibia/femur were detected; also recorded: signals attained in IR-783 imaging reflect metastases of the orthotopic ARCaPM tumor”, the body weight ([2]; 0 day, 1X imaging dose) was 20.29 g and the body weight ([2]; 0 day, 10X imaging dose) was 20.57 g. For the same molecule, the body weight ([2]; 0 day, 100X imaging dose) was 19.85 g, the “lethality in treated mice” value ([2]; 100× imaging dose, 28 days) was “no lethality” and the body weight ([2]; 1 day, 1X imaging dose) was 20.20 g. The body weight ([2]; 1 day, 10X imaging dose) was 20.61 g, the body weight ([2]; 1 day, 100X imaging dose) was 19.74 g and the body weight ([2]; 2 day, 1X imaging dose) was 20.23 g. For the same molecule, the body weight ([2]; 2 day, 10X imaging dose) was 20.59 g, the body weight ([2]; 2 day, 100X imaging dose) was 20.01 g and the body weight ([2]; 3 day, 1X imaging dose) was 20.32 g. For the same molecule, the body weight ([2]; 3 day, 10X imaging dose) was 20.98 g, the body weight ([2]; 3 day, 100X imaging dose) was 20.39 g and the body weight ([2]; 4 day, 1X imaging dose) was 20.34 g. For the same molecule, the body weight ([2]; 4 day, 10X imaging dose) was 21.02 g, the body weight ([2]; 4 day, 100X imaging dose) was 20.43 g and the body weight ([2]; 5 day, 1X imaging dose) was 21.00 g. The body weight ([2]; 5 day, 10X imaging dose) was 21.34 g, the body weight ([2]; 5 day, 100X imaging dose) was 21.01 g and the body weight ([2]; 6 day, 1X imaging dose) was 21.87 g. The body weight ([2]; 6 day, 10X imaging dose) was 21.76 g, the body weight ([2]; 6 day, 100X imaging dose) was 21.23 g and the body weight ([2]; 7 day, 1X imaging dose) was 22.32 g. For the same molecule, the body weight ([2]; 7 day, 10X imaging dose) was 22.54 g, the body weight ([2]; 7 day, 100X imaging dose) was 22.00 g and the body weight ([2]; 14 day, 1X imaging dose) was 23.91 g. For the same molecule, the body weight ([2]; 14 day, 10X imaging dose) was 24.01 g, the body weight ([2]; 14 day, 100X imaging dose) was 23.76 g and the body weight ([2]; 28 day, 1X imaging dose) was 24.86 g. The body weight ([2]; 28 day, 10X imaging dose) was 24.87 g, the body weight ([2]; 28 day, 100X imaging dose) was 24.61 g and the “dye uptake in human renal tumor tissue” value [3] was “can be taken up; also recorded: significant uptake; also recorded: strong IR-783 uptake”. The “dye uptake in normal kidney tissue” value [3] was “substantial low uptake; also recorded: undetectable; also recorded: not in normal kidney tissues”, the “signal in tumor tissues compared with IR-780 and PBS” value [3] was “stronger signals in tumor tissues than the IR-780 and PBS group” and the “uptake of dye by human bladder cancer cell lines” value (human cancer cells) was “strong uptake”. The “uptake of dye by human pancreatic cancer cell lines” value (human cancer cells) was “strong uptake”, the “dye uptake into cancer cells at 0° C.” value (human cancer cells; data not shown) was “no dye uptake and none” and the “dye uptake into cancer cells at 37° C.” value (human cancer cells; 37° C., data not shown) was “high”. For the same molecule, the “uptake of dye by human renal cancer cells” value (human cancer cells; SN12C, ACHN, Caki-1, 20 μM dye, 30 min) was “significant uptake; also recorded: actively taking up”, the “uptake of dye by human cancer cell lines in culture” value (human cancer cells; 20 μM dye, 30 min) was “preferentially taken up and retained by cancer but not normal cells; also recorded: a wide range of cancer cells but not normal cells were taking up these dyes; also recorded: retained in cancerous cells of human origin; also recorded: significant uptake” and the “tumor imaging of subcutaneous xenografts” value (human tumor xenografts; 5 nmol dye through tail vein) was “clear tumor images can be detected”. The “time after dye at which optimal images of tumors and metastases are obtained” value (human tumor xenografts; metastatic prostate tumors (ARCaP orthotopic) in mice) was 24 to 48 h, the “signal in tumor specimens, ex vivo analysis” value (human tumor xenografts; [4]) was “higher signals in tumor specimens” and the “signals in other normal organs, ex vivo analysis” value (human tumor xenografts; [4]) was “very low signals”. The “dye uptake by orthotopic ARCaPM tumors” value (human tumor xenografts; orthotopic ARCaPM (ARCaP) tumors in mice) was “strong uptake; also recorded: active uptake; also recorded: dye uptake and retention seen in an ARCaPM orthotopic tumor”, the “tumor signal in whole-body NIR imaging” value (human tumor xenografts; subcutaneous renal tumors (ACHN), Kodak System) was “signals could be clearly visualized in the tumors” and the “dye uptake and signal in human xenograft implants at various sites” value (human tumor xenografts) was “found in a broad spectrum of human xenograft implants; also recorded: intense signals were clearly associated with the tumors; also recorded: both tumors were detected”. The “signal at anatomical sites of implanted tumors” value (human tumor xenografts; subrenal capsule (Caki-1) and intraosseous (SN12C) renal tumor xenografts) was “strong signals”, the “duration of dye uptake and retention in tumors after dye administration” value (human tumor xenografts) was “up to 15 days” and the “size of tumors that can be imaged” value (human tumor xenografts; tumors in mice) was “approximately 1 mm^3”. The “tumor weight that can be imaged” value (human tumor xenografts; tumors in mice) was “approximately 1 mg”.
In the case of `CCCN1C(=CC=C2CCCC(C=CC3=[N+](CCC)c4ccccc4C3(C)C)=C2Cl)C(C)(C)c2ccccc21.[I-]` [IR-780, 2-[2-[2-Chloro-3-[(1,3-dihydro-3,3-dimethyl-1-propyl-2H-indol-2-ylidene)ethylidene]-1-cyclohexen-1-yl]ethenyl]-3,3-dimethyl-1-propylindolium iodide], the body weight ([2]; 0 day, 1X imaging dose) is reported as 19.00 g, the body weight ([2]; 0 day, 10X imaging dose) is reported as 20.71 g and the body weight ([2]; 0 day, 100X imaging dose) is reported as 20.14 g. The “day after injection at which all mice were killed” value ([2]; 100× excess of the imaging dose) was 2 days, the body weight ([2]; 1 day, 1X imaging dose) was 19.02 g and the body weight ([2]; 1 day, 10X imaging dose) was 20.69 g. The body weight ([2]; 1 day, 100X imaging dose) was 0 g, the body weight ([2]; 2 day, 1X imaging dose) was 19.71 g and the body weight ([2]; 2 day, 10X imaging dose) was 20.70 g. The body weight ([2]; 2 day, 100X imaging dose) was 0 g, the body weight ([2]; 3 day, 1X imaging dose) was 20.01 g and the body weight ([2]; 3 day, 10X imaging dose) was 21.03 g. The body weight ([2]; 3 day, 100X imaging dose) was 0 g, the body weight ([2]; 4 day, 1X imaging dose) was 20.32 g and the body weight ([2]; 4 day, 10X imaging dose) was 21.24 g. It also gave a body weight ([2]; 4 day, 100X imaging dose) of 0 g, a body weight ([2]; 5 day, 1X imaging dose) of 20.56 g and a body weight ([2]; 5 day, 10X imaging dose) of 21.89 g. It also gave a body weight ([2]; 5 day, 100X imaging dose) of 0 g, a body weight ([2]; 6 day, 1X imaging dose) of 20.97 g and a body weight ([2]; 6 day, 10X imaging dose) of 22.00 g. The body weight ([2]; 6 day, 100X imaging dose) was 0 g, the body weight ([2]; 7 day, 1X imaging dose) was 21.81 g and the body weight ([2]; 7 day, 10X imaging dose) was 22.56 g. The body weight ([2]; 7 day, 100X imaging dose) was 0 g, the body weight ([2]; 14 day, 1X imaging dose) was 23.56 g and the body weight ([2]; 14 day, 10X imaging dose) was 24.00 g. The body weight ([2]; 14 day, 100X imaging dose) was 0 g, the body weight ([2]; 28 day, 1X imaging dose) was 24.44 g and the body weight ([2]; 28 day, 10X imaging dose) was 24.56 g. The body weight ([2]; 28 day, 100X imaging dose) was 0 g, the “dye uptake into cancer cells at 0° C.” value (human cancer cells; data not shown) was “no dye uptake” and the “uptake of dye by human cancer cell lines in culture” value (human cancer cells; 20 μM dye, 30 min) was “preferentially taken up and retained by cancer but not normal cells; also recorded: a wide range of cancer cells but not normal cells were taking up these dyes; also recorded: significant uptake”. For the same molecule, the “tumor imaging of intratibial ARCaPM tumors” value (human tumor xenografts; 5 nmol dye through tail vein) was “clear tumor images can be detected”, the “tumor imaging of subcutaneous xenografts” value (human tumor xenografts; 5 nmol dye through tail vein) was “clear tumor images can be detected in all subcutaneous tumors” and the “dye uptake and signal in human xenograft implants at various sites” value (human tumor xenografts) was “found in a broad spectrum of human xenograft implants”. For the same molecule, the “duration of dye uptake and retention in tumors after dye administration” value (human tumor xenografts) was ≤ 15 days.
